{
  "source": "paper PMC5768359",
  "about": "“Dietary quercetin potentiates the antiproliferative effect of interferon-α in hepatocellular carcinoma cells through activation of JAK/STAT pathway signaling by inhibition of SHP2 phosphatase” (Oncotarget, 2017)",
  "key": {"SHP1": {"target": "T1, SHP1 (Homo sapiens, UniProt P29350)", "T1 construct": "gene PTPN6", "T1 sequence (P29350 whole entry)": "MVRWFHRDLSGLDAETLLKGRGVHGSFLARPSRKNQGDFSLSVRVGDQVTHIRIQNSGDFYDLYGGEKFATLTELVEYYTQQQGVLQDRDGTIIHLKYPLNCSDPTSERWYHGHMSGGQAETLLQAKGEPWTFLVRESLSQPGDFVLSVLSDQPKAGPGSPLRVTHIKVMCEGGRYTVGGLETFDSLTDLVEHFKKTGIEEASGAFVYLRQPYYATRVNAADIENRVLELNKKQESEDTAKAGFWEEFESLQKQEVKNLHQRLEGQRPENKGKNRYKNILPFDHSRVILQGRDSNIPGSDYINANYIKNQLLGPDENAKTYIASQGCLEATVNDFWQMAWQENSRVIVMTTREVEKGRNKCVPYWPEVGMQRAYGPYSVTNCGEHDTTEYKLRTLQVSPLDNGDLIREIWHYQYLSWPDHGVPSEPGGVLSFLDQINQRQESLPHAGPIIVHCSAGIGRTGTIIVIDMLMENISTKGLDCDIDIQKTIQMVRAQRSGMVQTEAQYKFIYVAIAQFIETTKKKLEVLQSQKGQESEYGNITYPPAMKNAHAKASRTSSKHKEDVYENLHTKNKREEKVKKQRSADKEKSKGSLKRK", "assay": "DiFMUP phosphatase assay with recombinant SHP1; supported by thermal stability shift", "type": "biochemical"}, "SHP2": {"target": "T2, SHP2 (Homo sapiens, UniProt Q06124)", "T2 construct": "gene PTPN11; GST-SHP2 (residues 205–593)", "T2 sequence (Q06124 205-593)": "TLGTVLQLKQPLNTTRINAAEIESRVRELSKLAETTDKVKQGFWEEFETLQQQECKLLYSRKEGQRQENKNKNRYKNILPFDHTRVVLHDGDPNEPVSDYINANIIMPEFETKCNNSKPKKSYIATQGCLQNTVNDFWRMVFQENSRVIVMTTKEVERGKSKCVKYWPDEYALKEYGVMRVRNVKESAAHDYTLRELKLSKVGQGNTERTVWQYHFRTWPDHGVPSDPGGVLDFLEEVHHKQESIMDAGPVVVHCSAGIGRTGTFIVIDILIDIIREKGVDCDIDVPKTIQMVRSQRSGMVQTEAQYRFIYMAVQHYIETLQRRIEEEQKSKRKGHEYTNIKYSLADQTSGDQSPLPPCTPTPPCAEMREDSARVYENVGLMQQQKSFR", "assay": "DiFMUP phosphatase assay with recombinant SHP2; supported by cellular thermal shift assay in HEK293A lysate", "type": "biochemical"}},
  "data": [
    {"smiles": "O=c1c(O)c(-c2ccc(O)c(O)c2)oc2cc(O)cc(O)c12", "note": "[quercetin]", "values": [
      {"measurement": "IC50", "setting": "SHP1", "value": "31.1 ± 1.27", "unit": "µM"},
      {"measurement": "IC50", "setting": "SHP2", "value": "10.2 ± 0.21", "unit": "µM"}
    ]}
  ]
}
